Measurements taken from ChEMBL document CHEMBL5214926, “Recent contribution of medicinally active 2-aminothiophenes: A privileged scaffold for drug discovery” (Eur J Med Chem, 2022).
Values after ≈ are worked out from the molar mass of the structure shown.

Assays:
TGF-beta receptor type-1 = biological target: T1, TGF-beta receptor type-1 (Homo sapiens, UniProt P36897); assay: Inhibition of human TGF-beta-R1 using TMB substrate incubated for 2.5 hrs by microplate reader analysis
T1 sequence (P36897 whole entry): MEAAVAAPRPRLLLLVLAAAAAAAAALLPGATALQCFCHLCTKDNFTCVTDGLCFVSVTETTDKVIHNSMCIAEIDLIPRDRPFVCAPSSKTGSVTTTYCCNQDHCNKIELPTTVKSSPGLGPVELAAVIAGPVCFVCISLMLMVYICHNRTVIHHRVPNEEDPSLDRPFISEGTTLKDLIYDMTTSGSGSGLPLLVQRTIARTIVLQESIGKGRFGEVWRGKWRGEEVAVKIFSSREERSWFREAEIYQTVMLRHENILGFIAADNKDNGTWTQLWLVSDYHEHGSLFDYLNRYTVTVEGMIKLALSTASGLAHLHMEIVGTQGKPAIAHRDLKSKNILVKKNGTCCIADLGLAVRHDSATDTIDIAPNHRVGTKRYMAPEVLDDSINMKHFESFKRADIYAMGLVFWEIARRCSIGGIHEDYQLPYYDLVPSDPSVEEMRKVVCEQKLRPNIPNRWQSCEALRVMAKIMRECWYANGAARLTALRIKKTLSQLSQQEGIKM

[1] = Cytotoxicity against human WI-38 cells assessed as cell growth inhibition incubated for 2 days by MTT assay; type: toxicity, cell-based
PC-3 = assay: Cytotoxicity against human PC-3 cells assessed as cell growth inhibition incubated for 2 days by MTT assay; type: functional, cell-based; conditions: PC-3, 48 h
HepG2 = assay: Cytotoxicity against human HepG2 cells assessed as cell growth inhibition incubated for 2 days by MTT assay; type: functional, cell-based; conditions: HepG2, 48 h
MCF7 = assay: Cytotoxicity against human MCF7 cells assessed as cell growth inhibition incubated for 2 days by MTT assay; type: functional, cell-based; conditions: MCF7, 48 h
Epidermophyton floccosum [2] = assay: Antifungal activity against Epidermophyton floccosum assessed as fungal growth inhibition incubated for 7 days by spectrophotometry; type: functional; conditions: 168 h, time 7 day
Candida parapsilosis = assay: Antifungal activity against Candida parapsilosis ATCC 22019 assessed as fungal growth inhibition by spectrophotometry; type: functional; conditions: Lodderomyces parapsilosis
Epidermophyton floccosum [3] = assay: Antifungal activity against Epidermophyton floccosum 6999 assessed as fungal growth inhibition by spectrophotometry; type: functional
Epidermophyton floccosum [4] = assay: Antifungal activity against Epidermophyton floccosum 6754 assessed as fungal growth inhibition by spectrophotometry; type: functional
Trichophyton tonsurans [5] = assay: Antifungal activity against Trichophyton tonsurans 700 assessed as fungal growth inhibition by spectrophotometry; type: functional
Trichophyton tonsurans [6] = assay: Antifungal activity against Trichophyton tonsurans 2822 assessed as fungal growth inhibition by spectrophotometry; type: functional
[7] = test system: Trichophyton mentagrophytes; assay: Antifungal activity against Trichophyton mentagrophytes 5431 assessed as fungal growth inhibition by spectrophotometry; type: functional
Trichophyton rubrum = assay: Antifungal activity against Trichophyton rubrum 6753 assessed as fungal growth inhibition by spectrophotometry; type: functional
[8] = test system: Trichophyton mentagrophytes; assay: Antifungal activity against Trichophyton mentagrophytes 5432 assessed as fungal growth inhibition by spectrophotometry; type: functional
Staphylococcus aureus [9] = assay: Antibacterial activity against Staphylococcus aureus NCIM 2010 assessed as bacterial growth inhibition incubated for 8 hrs; type: functional, organism-based; conditions: NCIM 2010, 8 h
[10] = test system: Mycobacterium tuberculosis; assay: Antimycobacterial activity against Mycobacterium tuberculosis H37Ra assessed as bacterial growth inhibition incubated for 8 to 12 days by XTT reduction menadione assay; type: functional; conditions: time 8-12 day
Staphylococcus aureus [11] = assay: Antibacterial activity against Staphylococcus aureus NCIM 2010 assessed as bacterial growth inhibition incubated for 8 hrs by absorbance based assay; type: functional
Bacillus subtilis [12] = assay: Antibacterial activity against Bacillus subtilis NCIM 2079 assessed as bacterial growth inhibition incubated for 8 hrs by absorbance based assay; type: functional
Escherichia coli [13] = assay: Antibacterial activity against Escherichia coli NCIM 2688 assessed as bacterial growth inhibition incubated for 8 hrs by absorbance based assay; type: functional
Pseudomonas aeruginosa = assay: Antibacterial activity against Pseudomonas aeruginosa NCIM 2036 assessed as bacterial growth inhibition incubated for 8 hrs by absorbance based assay; type: functional
[14] = test system: Mycobacterium tuberculosis; assay: Antimycobacterial activity against Mycobacterium tuberculosis H37Ra incubated for 8 to 12 days by XTT reduction menadione assay; type: functional; conditions: time 8-12 day
Staphylococcus aureus [15] = assay: Antibacterial activity against Staphylococcus aureus NCIM 2010 assessed as reduction in bacterial growth incubated for 8 hrs by absorbance based assay; type: functional, organism-based; conditions: NCIM 2010, 8 h
Bacillus subtilis [16] = assay: Antibacterial activity against Bacillus subtilis NCIM 2079 assessed as reduction in bacterial growth incubated for 8 hrs by absorbance based assay; type: functional, organism-based; conditions: NCIM 2079, 8 h
Staphylococcus coagulans = assay: Antimicrobial activity against Staphylococcus coagulans assessed as microbial growth inhibition incubated for 24 hrs by disc diffusion assay; type: functional
Heyndrickxia coagulans = assay: Antibacterial activity against Bacillus coagulans assessed as bacterial growth inhibition; type: functional
Enterococcus faecalis = assay: Antibacterial activity against Enterococcus faecalis assessed as bacterial growth inhibition; type: functional
Perkinsus sp. = assay: Antiprotozoal activity against Perkinsus sp. assessed as reduction in hypnospore viability at 500 uM measured after 48 hrs by microscopic analysis relative to control; type: functional
Candida tropicalis = assay: Antifungal activity against Candida tropicalis URM 4262 assessed as fungal growth inhibition around drug-chitosan film at 1.28 mg/ml; type: functional; conditions: read-out: DIZ
Homo sapiens [17] = organism: Homo sapiens; assay: Induction of CaCC (unknown origin) current potentiation at 10 uM relative to control
Leishmania amazonensis = assay: Anti-promastigote activity against Leishmania amazonensis (IFLA/BR/67/PH8) assessed as promastigote growth inhibition incubated for 72 hrs by microscopic analysis; type: functional, organism-based; conditions: Leishmania amazonensis, IFLA/BR/67/PH8, 72 h
DNA = assay: Binding affinity to parasitic DNA assessed as intrinsic binding constant by UV-visible absorption spectrophotometry; type: nucleic-acid assay
Escherichia coli [18] = assay: Antibacterial activity against Escherichia coli assessed as bacterial growth inhibition; type: functional
Homo sapiens [19] = organism: Homo sapiens; assay: Inhibition of CaCC (unknown origin) current potentiation at 10 uM relative to control

Which IC50 (TGF-beta receptor type-1) does the source give for COc1ccc(OC)c(/C=C/C(=O)Nc2sc3c(c2C#N)CCCC3)c1 here?
Its IC50 is 87 nM.

What about the IC50 at 2 days [1] of the same molecule?
The IC50 at 2 days was 260000 nM.

What about the IC50 (PC-3) of the same molecule?
Its IC50 is 2640 nM.

What about the IC50 (HepG2) of the same molecule?
Its IC50 is 2850 nM.

What about the IC50 (MCF7) of the same molecule?
Its IC50 is 3500 nM.

For N#Cc1ccsc1/N=C/c1ccc(Br)cc1, which MIC (Epidermophyton floccosum [2]) is on record?
Its MIC is 101 µM (≈ 29.4 µg/mL).

What about the MIC (Candida parapsilosis) of the same molecule?
The MIC was 128 µg/mL (≈ 440 µM).

And the MIC (Epidermophyton floccosum [3])?
Its MIC is 512 µg/mL (≈ 1760 µM).

And the MIC (Epidermophyton floccosum [4])?
The MIC was 512 µg/mL (≈ 1760 µM).

What about the MIC (Trichophyton tonsurans [5]) of the same molecule?
The MIC was 64 µg/mL (≈ 220 µM).

And the MIC (Trichophyton tonsurans [6])?
Its MIC is 1020 µg/mL (≈ 3520 µM).

What about the MIC [7] of the same molecule?
Its MIC is 128 µg/mL (≈ 440 µM).

And the MIC (Trichophyton rubrum)?
Its MIC is 32 µg/mL (≈ 110 µM).

And the MIC [8]?
The MIC was 1020 µg/mL (≈ 3520 µM).

With COC(=O)c1c(NC(=O)N[C@@H](C(=O)N[C@@H]2C(=O)N3C(C(=O)O)=C(C)CS[C@H]23)c2ccccc2)sc2c1CCCCCC2 as the molecule, how does the EC50 (Staphylococcus aureus [9]) read?
The EC50 was 180 nM.

What about the EC5 [10] of the same molecule?
Its EC5 is 0.782 µM.

What about the MIC (Staphylococcus aureus [11]) of the same molecule?
Its MIC is 0.46 µg/mL (≈ 0.751 µM).

And the MIC (Bacillus subtilis [12])?
Its MIC is 2.35 µg/mL (≈ 3.84 µM).

And the MIC (Escherichia coli [13])?
The MIC was greater than 10 µg/mL.

And the MIC (Pseudomonas aeruginosa)?
Its MIC is greater than 10 µg/mL.

And the MIC [14]?
Its MIC is 0.782 µg/mL (≈ 1.28 µM).

And the EC50 (Staphylococcus aureus [15])?
The EC50 was 180 nM.

And the EC50 (Bacillus subtilis [16])?
Its EC50 is 260 nM.

Which MIC (Epidermophyton floccosum [3]) does the source give for COc1cc(/C=N/c2sccc2C#N)cc(OC)c1OC here?
The MIC was 256 µg/mL (≈ 847 µM).

What about the MIC (Trichophyton tonsurans [5]) of the same molecule?
Its MIC is 128 µg/mL (≈ 423 µM).

And the MIC [7]?
Its MIC is 256 µg/mL (≈ 847 µM).

And the MIC (Trichophyton rubrum)?
Its MIC is 64 µg/mL (≈ 212 µM).

And the MIC [8]?
Its MIC is 128 µg/mL (≈ 423 µM).

With Cc1sc(NC(=O)c2cc(O)c(O)c(O)c2)c(C#N)c1C as the molecule, how does the MIC (Staphylococcus coagulans) read?
The MIC was 0.49 µM (≈ 0.149 µg/mL).

And the MIC (Heyndrickxia coagulans)?
The MIC was 0.15 µg/mL (≈ 0.493 µM).

What about the MIC (Enterococcus faecalis) of the same molecule?
The MIC was 0.25 µg/mL (≈ 0.821 µM).

Which Activity (Perkinsus sp.) does the source give for N#Cc1c(N)sc2c1CCCC2 here?
Its Activity is 38%.

And the zone of inhibition at 1280 µg/mL (Candida tropicalis)?
Its zone of inhibition at 1280 µg/mL is 1.5 mm.

With COC(=O)c1c(NC(=O)Cn2cc(CNC34CC5CC(CC(C5)C3)C4)nn2)sc2c1CCC(C(C)(C)C)C2 (stereo not drawn) as the molecule, how does the Activity (Homo sapiens [17]) read?
Its Activity is 35%.

Which results are given for N#Cc1c(NC(=O)c2cc(O)c(O)c(O)c2)sc2c1CCCCC2?
MIC (Staphylococcus coagulans): 0.43 µM (≈ 0.148 µg/mL); MIC (Heyndrickxia coagulans): 0.15 µg/mL (≈ 0.436 µM); MIC (Enterococcus faecalis): 0.25 µg/mL (≈ 0.726 µM)

Which results are given for N#Cc1c(NC(=O)c2cc(O)c(O)c(O)c2)sc2c1CCC2?
MIC (Staphylococcus coagulans): 0.32 µM (≈ 0.101 µg/mL); MIC (Heyndrickxia coagulans): 0.1 µg/mL (≈ 0.316 µM); MIC (Enterococcus faecalis): 0.25 µg/mL (≈ 0.79 µM)

With COc1ccc2nc3cc(Cl)ccc3c(Nc3sc4c(c3C#N)CCCC4)c2c1 as the molecule, how does the EC50 (Leishmania amazonensis) read?
The EC50 was 11000 nM.

What about the Kb (DNA) of the same molecule?
The Kb was 1 10^4/M.

Which MIC (Candida parapsilosis) does the source give for N#Cc1ccsc1/N=C/c1ccccc1[N+](=O)[O-] here?
The MIC was 128 µg/mL (≈ 498 µM).

What about the MIC (Epidermophyton floccosum [3]) of the same molecule?
Its MIC is 32 µg/mL (≈ 124 µM).

Which MIC (Heyndrickxia coagulans) does the source give for O=C(N[C@H](CO)[C@H](O)c1ccc([N+](=O)[O-])cc1)C(Cl)Cl [CHLORAMPHENICOL] here?
The MIC was 0.41 µg/mL (≈ 1.27 µM).

And the MIC (Enterococcus faecalis)?
The MIC was 0.05 µg/mL (≈ 0.155 µM).

And the MIC (Escherichia coli [18])?
The MIC was 0.05 µg/mL (≈ 0.155 µM).

With C=CCNC(=S)Nc1sc2c(c1C(=O)OC)CCCC2 as the molecule, how does the inhibition (Homo sapiens [19]) read?
Its inhibition is 40%.
